Here are results for 1 compound from patent publication US8269051B2, “Wickerol and method for producing the same” (The Kitasato Institute, priority 2008, dated 2012).

One data set has as its system MDCK cells. As to the kind of experiment: Proliferation of MDCK cells alone (cytotoxicity). Conditions: Canis lupus familiaris; MDCK cells without virus; read-out: IC50, inhibition of proliferation of the MDCK cells alone. In kind it is cell-based, canine.
The subject of data set [1] is influenza virus A/PR/8/34. Conditions: ratio of MDCK cytotoxicity IC50 to antiviral IC50.
Data set [2] concerns the microorganisms shown in the Table 3. As to the kind of experiment: Antimicrobial activity, overall statement. Type of data set: cell-based. The following applies: against the microorganisms shown in the Table 3. The method, then: Antimicrobial activity of the wickerol of the present invention was as follows. Each circular filter paper (Advantec, diameter: 6 mm) was soaked with 10 μl of methanol solution of the wickerol (1 mg/ml), and then allowed to air-dry for a predetermined time to remove a solvent. After the solvent was removed, the circular filter paper was placed on each of the following test microorganism-containing agar plates, and cultured for 24 hours at 35° C. Thereafter, a diameter of a growth inhibitory circle formed around each of the circular filter papers was measured, and the results were shown in Table 3.

Data set [3] concerns influenza virus A/PR/8/34. Put plainly: microbe, parasite or virus in culture. Conditions: unidentified influenza virus, PR/8, MDCK, 72 h, read-out: IC50, inhibition of replication of influenza virus A/PR/8/34 through the infection of the MDCK cells.

Structures are written as SMILES. Values after ≈ are worked out from the molar mass of the structure shown.

For `CC1CCC2CC3(C)CCC4C3C1(CCC4(C)O)C2(C)C` (stereo not shown) [wickerol], the values for the IC50 (with MDCK cells; in data set [3]) were 7 mg/L (≈ 24.1 µM) and 0.07 mg/L (≈ 0.241 µM), respectively. For the same compound, the “inhibitory activity against the influenza virus replication relative to cytotoxicity” value in data set [1] is listed as “approximately 100 times”. Also, the antimicrobial activity entry in data set [2] is on record as “almost no antimicrobial activity”.
